Laboratory results from the supplement of paper PMC10307832.

What was measured:
Experiment in all cases: relative viability (nuclei count vs DMSO), 5 days (fraction); higher = more cells survive
[1] = test system: EKVX
Summary of the method: (§1)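 Relative viability is defined as nuclei in treated wells over nuclei in vehicle wells. Duplicate plates were run and medians reported. Lung cancer cell lines in 1536-well plates were dosed by pin tool one day after seeding, with one drug or with a fixed anchor-drug dose plus five library-drug doses (not always all listed) in √10 steps, and nuclei were counted after 5 days.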

[2] = test system: EMC-BAC-2
Summary of the method: as §1

[3] = test system: H3255
Summary of the method: as §1

[4] = test system: HARA
Summary of the method: as §1

[5] = test system: HCC-15
Summary of the method: as §1

[6] = test system: HCC-827
Summary of the method: as §1

[7] = test system: LC-2-ad
Summary of the method: as §1

[8] = test system: LCLC-97TM1
Summary of the method: as §1

[9] = test system: LU99A
Summary of the method: as §1

[10] = test system: NCI-H1437
Summary of the method: as §1

[11] = test system: NCI-H1792
Summary of the method: as §1

[12] = test system: NCI-H1793
Summary of the method: as §1

[13] = test system: NCI-H1915
Summary of the method: as §1

[14] = test system: NCI-H1944
Summary of the method: as §1

[15] = test system: NCI-H2126
Summary of the method: as §1

[16] = test system: NCI-H23
Summary of the method: as §1

[17] = test system: NCI-H322M
Summary of the method: as §1

[18] = test system: NCI-H441
Summary of the method: as §1

[19] = test system: NCI-H460
Summary of the method: as §1

[20] = test system: NCI-H661
Summary of the method: as §1

[21] = test system: PC-3 [JPC-3]
Summary of the method: as §1

[22] = test system: SK-LU-1
Summary of the method: as §1

Structure (SMILES): O=C(O)CCCCC(CCSCc1ccccc1)SCc1ccccc1 (centres undefined) [CPI-613] + Cc1nc(NC(=O)N2CCC[C@H]2C(N)=O)sc1-c1ccnc(C(C)(C)C(F)(F)F)c1 [Alpelisib] (partner 2 µM)
- relative viability ([1]; first compound 5 µM): 0.802
- relative viability ([1]; first compound 15.81 µM): 0.814
- relative viability ([1]; first compound 50 µM): 0.903
- relative viability ([1]; first compound 158.11 µM): 0.857
- relative viability ([1]; first compound 500 µM): 0.965
- relative viability ([2]; first compound 5 µM): 0.713
- relative viability ([2]; first compound 15.81 µM): 0.702
- relative viability ([2]; first compound 50 µM): 0.72
- relative viability ([2]; first compound 158.11 µM): 0.68
- relative viability ([2]; first compound 500 µM): 0.119
- relative viability ([3]; first compound 5 µM): 0.695
- relative viability ([3]; first compound 15.81 µM): 0.576
- relative viability ([3]; first compound 50 µM): 0.695
- relative viability ([3]; first compound 158.11 µM): 0.639
- relative viability ([3]; first compound 500 µM): 0.672
- relative viability ([4]; first compound 5 µM): 0.856
- relative viability ([4]; first compound 15.81 µM): 0.681
- relative viability ([4]; first compound 50 µM): 0.942
- relative viability ([4]; first compound 158.11 µM): 0.401
- relative viability ([4]; first compound 500 µM): 0.0463
- relative viability ([5]; first compound 5 µM): 0.942
- relative viability ([5]; first compound 15.81 µM): 0.805
- relative viability ([5]; first compound 50 µM): 0.828
- relative viability ([5]; first compound 158.11 µM): 0.562
- relative viability ([5]; first compound 500 µM): 0.35
- relative viability ([6]; first compound 5 µM): 0.972
- relative viability ([6]; first compound 15.81 µM): 1
- relative viability ([6]; first compound 50 µM): 0.974
- relative viability ([6]; first compound 158.11 µM): 0.47
- relative viability ([6]; first compound 500 µM): 0.218
- relative viability ([7]; first compound 5 µM): 0.83
- relative viability ([7]; first compound 15.81 µM): 0.818
- relative viability ([7]; first compound 50 µM): 0.8
- relative viability ([7]; first compound 158.11 µM): 0.201
- relative viability ([7]; first compound 500 µM): 0.006
- relative viability ([8]; first compound 5 µM): 0.216
- relative viability ([8]; first compound 15.81 µM): 0.254
- relative viability ([8]; first compound 50 µM): 0.311
- relative viability ([8]; first compound 158.11 µM): 0.139
- relative viability ([8]; first compound 500 µM): 0.0641
- relative viability ([9]; first compound 5 µM): 0.535
- relative viability ([9]; first compound 15.81 µM): 0.51
- relative viability ([9]; first compound 50 µM): 0.461
- relative viability ([9]; first compound 158.11 µM): 0.227
- relative viability ([9]; first compound 500 µM): 0.0551
- relative viability ([10]; first compound 5 µM): 0.944
- relative viability ([10]; first compound 15.81 µM): 0.961
- relative viability ([10]; first compound 50 µM): 1.03
- relative viability ([10]; first compound 158.11 µM): 0.16
- relative viability ([10]; first compound 500 µM): 0.0244
- relative viability ([11]; first compound 5 µM): 0.675
- relative viability ([11]; first compound 15.81 µM): 0.646
- relative viability ([11]; first compound 50 µM): 0.71
- relative viability ([11]; first compound 158.11 µM): 0.555
- relative viability ([11]; first compound 500 µM): 0.709
- relative viability ([12]; first compound 5 µM): 0.671
- relative viability ([12]; first compound 50 µM): 0.66
- relative viability ([12]; first compound 158.11 µM): 0.273
- relative viability ([12]; first compound 500 µM): 0.109
- relative viability ([13]; first compound 5 µM): 1.12
- relative viability ([13]; first compound 15.81 µM): 1.04
- relative viability ([13]; first compound 50 µM): 1.01
- relative viability ([13]; first compound 158.11 µM): 0.925
- relative viability ([13]; first compound 500 µM): 0.926
- relative viability ([14]; first compound 5 µM): 0.841
- relative viability ([14]; first compound 15.81 µM): 0.843
- relative viability ([14]; first compound 50 µM): 0.778
- relative viability ([14]; first compound 158.11 µM): 0.803
- relative viability ([14]; first compound 500 µM): 0.743
- relative viability ([15]; first compound 5 µM): 0.755
- relative viability ([15]; first compound 15.81 µM): 0.815
- relative viability ([15]; first compound 50 µM): 0.78
- relative viability ([15]; first compound 158.11 µM): 0.749
- relative viability ([15]; first compound 500 µM): 0.747
- relative viability ([16]; first compound 5 µM): 0.684
- relative viability ([16]; first compound 15.81 µM): 0.604
- relative viability ([16]; first compound 50 µM): 0.685
- relative viability ([16]; first compound 158.11 µM): 0.143
- relative viability ([16]; first compound 500 µM): 0.0565
- relative viability ([17]; first compound 5 µM): 0.746
- relative viability ([17]; first compound 15.81 µM): 0.721
- relative viability ([17]; first compound 50 µM): 0.729
- relative viability ([17]; first compound 158.11 µM): 0.416
- relative viability ([17]; first compound 500 µM): 0.757
- relative viability ([18]; first compound 5 µM): 0.692
- relative viability ([18]; first compound 15.81 µM): 1.01
- relative viability ([18]; first compound 50 µM): 0.573
- relative viability ([18]; first compound 158.11 µM): 0.216
- relative viability ([18]; first compound 500 µM): 0.007
- relative viability ([19]; first compound 5 µM): 0.426
- relative viability ([19]; first compound 15.81 µM): 0.496
- relative viability ([19]; first compound 50 µM): 0.433
- relative viability ([19]; first compound 158.11 µM): 0.0466
- relative viability ([19]; first compound 500 µM): 0.006
- relative viability ([20]; first compound 5 µM): 0.68
- relative viability ([20]; first compound 15.81 µM): 0.515
- relative viability ([20]; first compound 50 µM): 0.939
- relative viability ([20]; first compound 158.11 µM): 0.594
- relative viability ([20]; first compound 500 µM): 0.608
- relative viability ([21]; first compound 5 µM): 1.05
- relative viability ([21]; first compound 15.81 µM): 0.943
- relative viability ([21]; first compound 50 µM): 0.934
- relative viability ([21]; first compound 158.11 µM): 0.921
- relative viability ([21]; first compound 500 µM): 0.903
- relative viability ([22]; first compound 5 µM): 1.05
- relative viability ([22]; first compound 15.81 µM): 0.849
- relative viability ([22]; first compound 50 µM): 0.57
- relative viability ([22]; first compound 158.11 µM): 0.175
- relative viability ([22]; first compound 500 µM): 0.114
